Tests used:
Adenosine receptor A3 [1] = target: T1, Adenosine receptor A3 (Homo sapiens, UniProt P0DMS8); assay: Binding affinity at human Adenosine A3 receptor expressed in HEK 293 cells by [125I]AB-MECA displacement.; format: cell-based, HEK293
T1 sequence (P0DMS8 whole entry): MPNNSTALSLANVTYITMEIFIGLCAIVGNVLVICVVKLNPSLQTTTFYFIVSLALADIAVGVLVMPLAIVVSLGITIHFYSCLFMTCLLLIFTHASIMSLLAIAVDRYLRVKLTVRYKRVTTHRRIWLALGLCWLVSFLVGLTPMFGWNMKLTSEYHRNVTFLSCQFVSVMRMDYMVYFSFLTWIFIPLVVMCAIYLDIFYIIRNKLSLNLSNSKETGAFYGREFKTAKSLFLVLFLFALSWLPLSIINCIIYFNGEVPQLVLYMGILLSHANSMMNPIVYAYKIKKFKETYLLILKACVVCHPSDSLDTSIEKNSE

Adenosine receptor A2a [2] = target: T2, Adenosine receptor A2a (Rattus norvegicus, UniProt P30543); assay: Displacement of [3H]-CGS- 21680 from Adenosine A2A receptor of rat striatal membranes; format: cell membranes, Membrane
Adenosine receptor A1 = target: T3, Adenosine receptor A1 (Rattus norvegicus, UniProt P25099); assay: Displacement of [3H]DPCPX from rat cortical membranes Adenosine A1 receptor; format: cell membranes, Membrane
T3 sequence (P25099 whole entry): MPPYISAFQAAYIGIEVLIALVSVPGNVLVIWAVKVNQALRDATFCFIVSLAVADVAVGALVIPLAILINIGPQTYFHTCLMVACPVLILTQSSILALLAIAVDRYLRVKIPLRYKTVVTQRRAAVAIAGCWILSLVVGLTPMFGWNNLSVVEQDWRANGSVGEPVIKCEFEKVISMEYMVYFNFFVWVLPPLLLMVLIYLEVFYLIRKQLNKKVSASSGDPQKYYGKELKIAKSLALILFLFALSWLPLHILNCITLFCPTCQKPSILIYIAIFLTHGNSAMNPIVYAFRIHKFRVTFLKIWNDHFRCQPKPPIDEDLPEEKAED

[3] = target: Adenosine receptors; A1 & A3 (Rattus norvegicus) (UniProt P25099+P28647); assay: Ratio of displacement of A1 receptor to A3 receptor; format: protein assay
[4] = target: T4, Adenosine receptor A3 (Homo sapiens) (UniProt P0DMS8); assay: Percentage of [35S]GTP-gamma-S, binding to the human adenosine A3 receptor stimulated at 10E-4 M; format: functional
T4 sequence (whole entry): T1 sequence (P0DMS8 whole entry)

[5] = target: Adenosine receptor A2a (Rattus norvegicus) (UniProt P30543); assay: Percentage displacement of [3H]-CGS- 21680 from Adenosine A2A receptor of rat striatal membranes at 10 uM; format: cell membranes; details: Membrane
[6] = target: T5, Adenosine receptor A1 (Rattus norvegicus) (UniProt P25099); assay: Percentage displacement of [3H]DPCPX from rat cortical membranes Adenosine A1 receptor at 10 uM; format: cell membranes; details: Membrane
T5 sequence (whole entry): T3 sequence (P25099 whole entry)

[7] = target: T4, Adenosine receptor A3 (Homo sapiens); assay: Inhibition of forskolin-induced c-AMP production by adenosine A3 receptor with 10 uM NECA; format: functional
[8] = target: T4, Adenosine receptor A3 (Homo sapiens); assay: Inhibition of forskolin-stimulated cAMP production mediated by human adenosine A3 receptor expressed in CHO cells at 10 uM; format: functional, cell-based
Adenosine receptor A3 [9] = target: T1, Adenosine receptor A3; assay: Effective concentration for stimulation of [35S]GTP-gamma-S, binding to human adenosine A3 receptor; format: functional
Adenosine receptor A3 [10] = target: T1, Adenosine receptor A3; assay: Displacement of [125I]AB-MECA from human Adenosine A3 receptor expressed in HEK 293 cells; format: cell-based, HEK293
Adenosine receptor A2a [11] = target: T2, Adenosine receptor A2a; assay: Displacement of [3H]-CGS- […] from Adenosine A2A receptor of rat striatal membranes; format: cell membranes, Membrane

T2 sequence (P30543 whole entry): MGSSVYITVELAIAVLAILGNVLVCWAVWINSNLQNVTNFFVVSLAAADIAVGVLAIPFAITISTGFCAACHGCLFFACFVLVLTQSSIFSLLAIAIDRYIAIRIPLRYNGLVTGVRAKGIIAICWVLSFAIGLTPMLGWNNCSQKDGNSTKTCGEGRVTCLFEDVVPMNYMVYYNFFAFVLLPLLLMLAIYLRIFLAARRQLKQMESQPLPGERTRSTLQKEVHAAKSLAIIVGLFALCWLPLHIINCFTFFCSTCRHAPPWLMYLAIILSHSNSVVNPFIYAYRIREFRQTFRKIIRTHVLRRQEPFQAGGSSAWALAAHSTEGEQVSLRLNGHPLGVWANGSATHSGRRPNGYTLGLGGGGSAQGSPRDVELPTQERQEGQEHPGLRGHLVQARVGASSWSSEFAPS
Adenosine receptor A2a (Rattus norvegicus), sequence (P30543 whole entry): as above

Structure (SMILES)	Ki (Adenosine receptor A3 [1]) [nM]	Ratio [3]	Radioligand bound [4] [%]	also measured
CNC(=O)[C@H]1OC(n2cnc3c(NCc4ccccc4)ncnc32)[C@@H](O)[C@H]1O (some centres undefined)	41	–	–	–
CCSC[C@H]1O[C@@H](n2cnc3c(NCc4cccc(I)c4)ncnc32)[C@H](O)[C@@H]1O	17.5	41.1	21	Ki (Adenosine receptor A2a [2]): 1080 nM; Ki (Adenosine receptor A1): 720 nM
CCSC[C@H]1O[C@@H](n2cnc3c(NC4CCCC4)ncnc32)[C@H](O)[C@@H]1O	90	0.5	–	–
CC(C)SC[C@H]1O[C@@H](n2cnc3c(NCc4cccc(I)c4)ncnc32)[C@H](O)[C@@H]1O	46.3	> 216	16	Displacement [5]: 45%; Displacement [6]: 35%
CCCSC[C@H]1O[C@@H](n2cnc3c(NCc4cccc(I)c4)ncnc32)[C@H](O)[C@@H]1O	44.3	> 226	10	Displacement [5]: 42%; Displacement [6]: 42%
OC[C@H]1O[C@@H](n2cnc3c(NCc4cccc(I)c4)ncnc32)[C@H](O)[C@@H]1O	–	–	56	inhibition [7]: 91%; inhibition [8]: 86%
OC[C@H]1O[C@@H](n2cnc3c(NC4CCCC4)ncnc32)[C@H](O)[C@@H]1O [N6-CYCLOPENTYLADENOSINE]	120	–	–	–
CSC[C@H]1O[C@@H](n2cnc3c(NCc4cccc(I)c4)ncnc32)[C@H](O)[C@@H]1O	8.78	69.5	41	Ki (Adenosine receptor A2a [2]): 1820 nM; inhibition [7]: 87%; inhibition [8]: 64%; Ki (Adenosine receptor A1): 610 nM; EC50 (Adenosine receptor A3 [9]): 27 nM
CNC(=O)C[C@H]1OC(n2cnc3c(NCc4cccc(I)c4)nc(Cl)nc32)[C@@H](O)[C@H]1O (some centres undefined)	–	–	–	Ki (Adenosine receptor A3 [10]): 0.33 nM
CCCSC[C@H]1O[C@@H](n2cnc3c(NC4CCCC4)ncnc32)[C@H](O)[C@@H]1O	193	0.39	–	–
CC(C)SC[C@H]1O[C@@H](n2cnc3c(NC4CCCC4)ncnc32)[C@H](O)[C@@H]1O	137	0.3	–	Ki (Adenosine receptor A2a [11]): 10200 nM; Ki (Adenosine receptor A1): 41 nM
O[C@H]1[C@@H](c2ccon2)OC(n2cnc3c(NCc4cccc(I)c4)nc(Cl)nc32)[C@H]1O (some centres undefined)	7.8	–	–	–
CCCSC[C@H]1O[C@@H](n2cnc3c(NCc4ccccc4)ncnc32)[C@H](O)[C@@H]1O	647	8.7	7	Ki (Adenosine receptor A2a [2]): 7990 nM; Ki (Adenosine receptor A1): 5870 nM
OC[C@H]1O[C@@H](n2cnc3c(NCc4ccccc4)ncnc32)[C@H](O)[C@@H]1O [N6-BENZYLADENOSINE]	550	–	81	Ki (Adenosine receptor A2a [2]): 733 nM; inhibition [7]: 94%; inhibition [8]: 82%; EC50 (Adenosine receptor A3 [9]): 384 nM
COc1cccc(CNc2nc(Cl)nc3c2ncn3C2O[C@H](c3ccon3)[C@H](O)[C@@H]2O)c1 (some centres undefined)	31	–	–	–
O[C@@H]1[C@H](O)[C@@H](CCl)O[C@H]1n1cnc2c(NCc3ccccc3)ncnc21	1860	> 5.4	13	Ki (Adenosine receptor A2a [2]): 641 nM; Displacement [6]: 47%
CSC[C@H]1O[C@@H](n2cnc3c(NC4CCCC4)ncnc32)[C@H](O)[C@@H]1O	74	0.8	–	–
CCNC(=O)[C@H]1O[C@@H](n2cnc3c(N)ncnc32)[C@H](O)[C@@H]1O	–	–	100	inhibition [8]: 100%
O[C@@H]1[C@H](O)[C@@H](CCl)O[C@H]1n1cnc2c(NC3CCCC3)ncnc21	1290	0.007	–	–
O[C@@H]1[C@H](O)[C@@H](CCl)O[C@H]1n1cnc2c(NCc3cccc(I)c3)ncnc21	188	1.4	8	Ki (Adenosine receptor A2a [2]): 457 nM; Ki (Adenosine receptor A1): 270 nM
CC(C)SC[C@H]1O[C@@H](n2cnc3c(NCc4ccccc4)ncnc32)[C@H](O)[C@@H]1O	211	> 47.4	22	Displacement [5]: 6%; Displacement [6]: 14%
CCSC[C@H]1O[C@@H](n2cnc3c(NCc4ccccc4)ncnc32)[C@H](O)[C@@H]1O	159	> 62.9	19	Displacement [5]: 38%; Displacement [6]: 29%
CSC[C@H]1O[C@@H](n2cnc3c(NCc4ccccc4)ncnc32)[C@H](O)[C@@H]1O	128	> 78.1	52	Displacement [5]: 25%; inhibition [7]: 93%; inhibition [8]: 60%; Displacement [6]: 31%; EC50 (Adenosine receptor A3 [9]): 473 nM

Source: ChEMBL document CHEMBL1132635, “N6,5'-Disubstituted adenosine derivatives as partial agonists for the human adenosine A3 receptor” (J Med Chem, 1999)
